What was measured:
[1] = system: EMP2 mRNA expression of RT4 bladder cancer cell line; assay: Northern blotting of EMP2 mRNA expression in RT4 cells treated with genistein; format: cell-based; settings: genistein 10 μg/mL, 24 hours, normalized to β-actin
Experimental: FIG. 1A is a northern blotting figure showing the respective EMP2 mRNA expressions of RT4 bladder cancer cell line treated with genistein (10 μg/mL) for 24 hours (Isoflavone treatment group) or not (Control group).
Please refer to FIG. 1A which is a northern blotting figure. […] That is, genistein, the isoflavone compound, can up-regulate the EMP2 mRNA expression of RT4 cells.

[2] = system: EMP2 mRNA expression of TSGH8301 human bladder cancer cell line; assay: Relative quantification of EMP2 mRNA expression in TSGH8301 cells incubated with genistein; format: cell-based
Experimental: TSGH8301 cell lines were initially incubated with mediums containing 2 μM, 5 μM and 10 μM of genistein, respectively, and the respective EMP2 mRNA expressions was measured at sixth day, wherein mRNA expressions of housekeeping gene was taken as the baseline control.
TSGH8301 cells were initially incubated with medium containing 15 μM of genistein and EMP2 mRNA expressions were measured at second, fourth and sixth days, respectively, wherein mRNA expressions of housekeeping gene of TSGH8301 cell lines were taken as the baseline control. With increase of incubating durations, EMP2 mRNA expression of TSGH8301 cells incubated with genistein was increased as shown in FIG. 3.

β3 integrin = assay: Expression of β3 integrin after shRNA transfection; format: cell-based, human; settings: TSGH8301 and TSGH8301/EMP2-2 cell lines
From the text: (§1) These two cell lines were transfected with small hairpin RNAs (shRNA) against αV and β3 integrins, respectively. In brief, TSGH8301 and TSGH8301/EMP2-2 cell lines were transfected with shRNAs of A1 or C1 against β3 integrin, shRNAs of H1 or G1 against αV integrin. The mRNA of EMP2 and TBP of these transfected cell lines were harvested for quantification by real-time PCR. The sequences of shRNAs of A1 (SEQ ID NO. 1), C1 (SEQ ID NO. 2), H1 (SEQ ID NO. 3) and G1 (SEQ ID NO. 4) are 5′-[…] CATAATGTTTTT-3′, 5′-[…] AACAGGGTTTTT-3′, 5′-[…] GTAAGGCTTTTTG-3′ and 5′-[…] TCCCTCGTTTTTG-3′, respectively. After transfections of shRNAs of A1, C1, H1 and G1, expressions of αV and β3 integrins in TSGH8301 and TSGH8301/EMP2-2 cell lines were repressed correspondingly. Besides, mRNA expression of EMP2 and TBP in TSGH8301 and TSGH8301/EMP2-2 cell lines without transfection was taken as controls (Ctl).

αV integrin = assay: Expression of αV integrin after shRNA transfection; format: cell-based, human; settings: TSGH8301 and TSGH8301/EMP2-2 cell lines
From the text: as §1

O=c1c(-c2ccc(O)cc2)coc2cc(O)cc(O)c12 [genistein]
EMP2 mRNA expression compared with Control group (defined as 1) [1]: up to 3.5 times
EMP2 mRNA expression, dependence on genistein concentration ([2]; 2 μM, 5 μM and 10 μM genistein, measured at sixth day, P=0.03 two way ANOVA): dose-dependent up-regulation
EMP2 mRNA expression, dependence on incubating duration ([2]; 15 μM genistein, measured at second, fourth and sixth days, P=0.03 one way ANOVA): time-dependent up-regulation

A1: shRNA against β3 integrin, 5′-CCGGCATTATGTTTACAGAGGACAACTCGAGTTGTCCTCTGTAAA CATAATGTTTTT-3′ (CCGGCATTATGTTTACAGAGGACAACTCGAGTTGTCCTCTGTAAACATAATGTTTTT)
expression of β3 integrin after shRNA transfection (β3 integrin): repressed

C1: shRNA against β3 integrin, 5′-CCGGCCCTGTTACAATATGAAGAATCTCGAGATTCTTCATATTGT AACAGGGTTTTT-3′ (CCGGCCCTGTTACAATATGAAGAATCTCGAGATTCTTCATATTGTAACAGGGTTTTT)
expression of β3 integrin after shRNA transfection (β3 integrin): repressed

G1: shRNA against αV integrin, 5′-CCGGCGAGGGAAGTTACTTCGGATTCTCGAGAATCCGAAGTAACT TCCCTCGTTTTTG-3′ (CCGGCGAGGGAAGTTACTTCGGATTCTCGAGAATCCGAAGTAACTTCCCTCGTTTTTG)
expression of αV integrin after shRNA transfection (αV integrin): repressed

H1: shRNA against αV integrin, 5′-CCGGGCCTTACAAATACAACAACAACTCGAGTTGTTGTTGTATTT GTAAGGCTTTTTG-3′ (CCGGGCCTTACAAATACAACAACAACTCGAGTTGTTGTTGTATTTGTAAGGCTTTTTG)
expression of αV integrin after shRNA transfection (αV integrin): repressed

Reference: US9180139B2, “Regulator, pharmaceutical composition encompassing the regulator and application thereof” (NATIONAL CHENG KUNG UNIVERSITY, priority 2012, dated 2015)
